Here are results for four compounds from ChEMBL document CHEMBL1127897, “Cucurbitacin F derivatives, anti-HIV principles from cowania mexicana” (Bioorg Med Chem Lett, 1994).

A short description of test [1]: Evaluated for the therapeutic index value of the compound. It is filed as functional.
For test [2], the system named is H9. Kind of test: Tested for anti-HIV activity against acutely infected H9 cells, activity expressed as EC50. It is filed as functional, cell-based. The settings on record: Homo sapiens.
The subject of test [3] is H9. The experiment in a line: Concentration required for […] against acutely infected H9 cells. It is filed as functional, cell-based. The conditions noted are these: Homo sapiens.

Structures are written as SMILES. ≈ marks a conversion by molar mass, not a printed value.

In turn, `CC(C)(O)CCC(=O)[C@](C)(O)C1[C@H](O)C(=O)[C@@]2(C)[C@@H]3CC=C4[C@@H](C[C@H](O)[C@@H](O)C4(C)C)[C@]3(C)C(=O)C[C@]12C` (some centres not stated) returned a Therapeutic index in test [1] of 15.2. In test [2], this compound gave an EC50 of 2.5 µg/mL (≈ 4.68 µM). In test [3], this compound displayed an IC50 of 38 µg/mL (≈ 71.1 µM).

For `CC(C)(O)/C=C/C(=O)[C@](C)(O)C1[C@H](O)C(=O)[C@@]2(C)[C@@H]3CC=C4[C@@H](C[C@H](O)[C@@H](O)C4(C)C)[C@]3(C)C(=O)C[C@]12C` (some centres not stated), in test [1], the Therapeutic index came out at 17. The compound also returned an EC50 in test [2] of 0.3 µg/mL (≈ 0.563 µM). The same compound showed an IC50 in test [3] of 5.1 µg/mL (≈ 9.57 µM).

For `CC(C)(O)/C=C/C(=O)[C@](C)(O)[C@H]1[C@H](O)C[C@@]2(C)[C@@H]3CC=C4[C@@H](C[C@H](O)[C@@H](O)C4(C)C)[C@]3(C)C(=O)C[C@]12C` [CUCURBITACIN F], the Therapeutic index in test [1] was found to be 2.7. In addition, a half-maximal response in test [2] (EC50) required 0.06 µg/mL (≈ 0.116 µM). In test [3], 0.16 µg/mL (≈ 0.308 µM) corresponded to half-maximal inhibition (IC50).

Compound `CC(C)(O)CCC(=O)[C@](C)(O)C1[C@H](O)C[C@@]2(C)[C@@H]3CC=C4[C@@H](C[C@H](O)[C@@H](O)C4(C)C)[C@]3(C)C(=O)C[C@]12C` (some centres not stated) registered a Therapeutic index in test [1] of 11.6. The same compound had an EC50 in test [2] of 0.8 µg/mL (≈ 1.54 µM). This compound showed an IC50 in test [3] of 9.3 µg/mL (≈ 17.9 µM).
